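Five compound concentrations were applied to cells in 96-well plates for 48 hours; endpoints were derived by simple linear interpolation of the resulting dose-response curve. Abbreviation: GI50, concentration required for 50% inhibition of growth.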 Calls of active or inactive are those of the source. Rule as the data show it: active = GI50 up to about 1.1 µM and inactive = higher.
Tests used:
Assay in all cases: DTP human tumour cell line panel, 48 h
[1] = test system: SNB-75
[2] = test system: LOX IMVI
[3] = test system: SR
[4] = test system: NCI-H226
[5] = test system: COLO 205
[6] = test system: SK-MEL-28
[7] = test system: HCT-116
[8] = test system: HCC 2998
[9] = test system: SK-MEL-2
[10] = test system: OVCAR-8
[11] = test system: SF-295
[12] = test system: IGROV-1
[13] = test system: EKVX
[14] = test system: HCT-15
[15] = test system: RPMI-8226
[16] = test system: CCRF-CEM
[17] = test system: HOP-62
[18] = test system: UACC-62
[19] = test system: T47D
[20] = test system: ACHN
[21] = test system: SNB-19
[22] = test system: MOLT-4
[23] = test system: M14
[24] = test system: OVCAR-3
[25] = test system: NCI-H460
[26] = test system: KM12
[27] = test system: BT-549
[28] = test system: DU-145
[29] = test system: OVCAR-5
[30] = test system: PC-3
[31] = test system: UACC-257
[32] = test system: NCI-H23
[33] = test system: SN12C
[34] = test system: NCI-H522
[35] = test system: CAKI-1
[36] = test system: RXF 393
[37] = test system: MDA-MB-435
[38] = test system: OVCAR-4
[39] = test system: A498
[40] = test system: A549
[41] = test system: Hs-578T
[42] = test system: MDA-MB-231
[43] = test system: MDA-N
[44] = test system: 786-0
[45] = test system: UO-31
[46] = test system: U-251
[47] = test system: SF-539
[48] = test system: HL-60
[49] = test system: TK-10
[50] = test system: SF-268
[51] = test system: MCF7
[52] = test system: Malme-3M
[53] = test system: HT-29
[54] = test system: SW-620
[55] = test system: SK-OV-3
[56] = test system: K562
[57] = test system: SK-MEL-5
[58] = test system: NCI/ADR-RES
[59] = test system: HOP-92

`COc1ccc2c(c1)c(=O)c1c(NCCCN(C)CCCNc3ccc4c(=O)n(CCN(C)C)c(=O)n5c6ccc(OC)cc6c(=O)c3c45)ccc3c(=O)n(CCN(C)C)c(=O)n2c31` was tested, and the GI50 [1] was < 0.0175 µM (active), the GI50 [2] was < 0.01 µM (active) and the GI50 [3] was < 0.01 µM (active). For the same compound, the GI50 [4] was < 0.01 µM (active), the GI50 [5] was < 0.0473 µM (active) and the GI50 [6] was 0.415 µM (active). For the same compound, the GI50 [7] was < 0.01 µM (active), the GI50 [8] was < 0.01 µM (active) and the GI50 [9] was 0.514 µM (active). For the same compound, the GI50 [10] was < 0.01 µM (active), the GI50 [11] was < 0.0169 µM (active) and the GI50 [12] was < 0.01 µM (active). For the same compound, the GI50 [13] was 0.188 µM (active), the GI50 [14] was less than 0.0258 µM and the GI50 [15] was < 0.01 µM (active). For the same compound, the GI50 [16] was < 0.01 µM (active), the GI50 [17] was < 0.036 µM (active) and the GI50 [18] was 0.305 µM (active). The GI50 [19] was 0.619 µM (active), the GI50 [20] was < 0.01 µM (active) and the GI50 [21] was < 0.01 µM (active). The GI50 [22] was < 0.01 µM (active), the GI50 [23] was 0.594 µM (active) and the GI50 [24] was 0.138 µM (active). The GI50 [25] was < 0.01 µM (active), the GI50 [26] was < 0.01 µM (active) and the GI50 [27] was 0.259 µM (active). The GI50 [28] was < 0.012 µM (active), the GI50 [29] was 0.29 µM (active) and the GI50 [30] was < 0.0147 µM (active). For the same compound, the GI50 [31] was 0.352 µM (active), the GI50 [32] was < 0.0324 µM (active) and the GI50 [33] was < 0.01 µM (active). The GI50 [34] was < 0.0193 µM (active), the GI50 [35] was < 0.015 µM (active) and the GI50 [36] was < 0.0202 µM (active). For the same compound, the GI50 [37] was < 0.0149 µM (active), the GI50 [38] was < 0.01 µM (active) and the GI50 [39] was 0.305 µM (active). The GI50 [40] was < 0.01 µM (active), the GI50 [41] was 0.105 µM (active) and the GI50 [42] was 0.0614 µM (active). For the same compound, the GI50 [43] was 0.17 µM (active), the GI50 [44] was < 0.01 µM (active) and the GI50 [45] was < 0.0181 µM (active). For the same compound, the GI50 [46] was < 0.01 µM (active), the GI50 [47] was 0.08 µM (active) and the GI50 [48] was 0.0914 µM (active). For the same compound, the GI50 [49] was 0.119 µM (active), the GI50 [50] was 0.0998 µM (active) and the GI50 [51] was < 0.01 µM (active). The GI50 [52] was 0.484 µM (active), the GI50 [53] was < 0.01 µM (active) and the GI50 [54] was < 0.01 µM (active). For the same compound, the GI50 [55] was 0.217 µM (active) and the GI50 [56] was < 0.01 µM (active).

For `CCOC(=O)c1c(C)n(C)c2c1cc(O)c1[nH]c3c(c12)CCCC3`, the GI50 [2] was 14.5 µM (inactive), the GI50 [57] was 12.3 µM (inactive) and the GI50 [5] was 10.8 µM (inactive). The GI50 [6] was 17.5 µM (inactive), the GI50 [7] was 17.9 µM (inactive) and the GI50 [9] was 18.5 µM (inactive). For the same compound, the GI50 [10] was 21 µM (inactive), the GI50 [11] was 39.1 µM (inactive) and the GI50 [12] was 12.7 µM (inactive). For the same compound, the GI50 [13] was 17.6 µM (inactive), the GI50 [14] was 27.2 µM and the GI50 [15] was 3.93 µM (inactive). The GI50 [16] was 20.3 µM (inactive), the GI50 [17] was 38.3 µM (inactive) and the GI50 [18] was 18.8 µM (inactive). The GI50 [19] was 18.2 µM (inactive), the GI50 [20] was 27.4 µM (inactive) and the GI50 [21] was 38.4 µM (inactive). For the same compound, the GI50 [22] was 16.9 µM (inactive), the GI50 [23] was 13.2 µM (inactive) and the GI50 [24] was 5.62 µM (inactive). For the same compound, the GI50 [25] was 20.5 µM (inactive), the GI50 [26] was 15 µM (inactive) and the GI50 [27] was 45.7 µM (inactive). The GI50 [28] was 22.8 µM (inactive), the GI50 [29] was 28.8 µM (inactive) and the GI50 [30] was 18.3 µM (inactive). The GI50 [31] was 3.61 µM (inactive), the GI50 [32] was 21 µM (inactive) and the GI50 [33] was 24.2 µM (inactive). The GI50 [34] was 14 µM (inactive), the GI50 [35] was 28.4 µM (inactive) and the GI50 [37] was 13.4 µM (inactive). The GI50 [38] was 10.8 µM (inactive), the GI50 [40] was 18 µM (inactive) and the GI50 [41] was 32.7 µM (inactive). The GI50 [42] was 17.1 µM (inactive), the GI50 [43] was 15.6 µM (inactive) and the GI50 [44] was 15.6 µM (inactive). For the same compound, the GI50 [45] was 19.6 µM (inactive), the GI50 [58] was 17.9 µM (inactive) and the GI50 [46] was 18.2 µM (inactive). For the same compound, the GI50 [47] was 19.2 µM (inactive), the GI50 [48] was 21.6 µM (inactive) and the GI50 [49] was 22.9 µM (inactive). The GI50 [50] was 2 µM (inactive), the GI50 [59] was 0.0185 µM (active) and the GI50 [51] was 2.71 µM (inactive). For the same compound, the GI50 [52] was 7.66 µM (inactive), the GI50 [53] was 18.8 µM (inactive) and the GI50 [54] was 20.8 µM (inactive). The GI50 [55] was 29.4 µM (inactive) and the GI50 [56] was 17.3 µM (inactive).

For `O=S(=O)(O)c1cc(S(=O)(=O)O)c2c(/N=N/c3ccc(S(=O)(=O)O)c4ccccc34)c(O)ccc2c1`, the GI50 [1] was > 100 µM (inactive), the GI50 [2] was > 100 µM (inactive) and the GI50 [57] was > 100 µM (inactive). For the same compound, the GI50 [4] was > 100 µM (inactive), the GI50 [5] was > 100 µM (inactive) and the GI50 [6] was > 100 µM (inactive). The GI50 [7] was > 100 µM (inactive), the GI50 [9] was > 100 µM (inactive) and the GI50 [10] was > 100 µM (inactive). The GI50 [11] was > 100 µM (inactive), the GI50 [12] was > 100 µM (inactive) and the GI50 [13] was > 100 µM (inactive). The GI50 [14] was greater than 100 µM, the GI50 [15] was > 100 µM (inactive) and the GI50 [16] was > 100 µM (inactive). The GI50 [17] was > 100 µM (inactive), the GI50 [18] was > 100 µM (inactive) and the GI50 [19] was > 100 µM (inactive). For the same compound, the GI50 [20] was > 100 µM (inactive), the GI50 [21] was > 100 µM (inactive) and the GI50 [22] was > 100 µM (inactive). The GI50 [23] was > 100 µM (inactive), the GI50 [24] was > 100 µM (inactive) and the GI50 [26] was > 100 µM (inactive). The GI50 [27] was > 100 µM (inactive), the GI50 [28] was > 100 µM (inactive) and the GI50 [29] was > 100 µM (inactive). The GI50 [30] was > 100 µM (inactive), the GI50 [31] was > 100 µM (inactive) and the GI50 [32] was > 100 µM (inactive). The GI50 [33] was > 100 µM (inactive), the GI50 [34] was > 100 µM (inactive) and the GI50 [35] was > 100 µM (inactive). The GI50 [36] was > 100 µM (inactive), the GI50 [37] was > 100 µM (inactive) and the GI50 [38] was > 100 µM (inactive). For the same compound, the GI50 [40] was > 100 µM (inactive), the GI50 [41] was > 100 µM (inactive) and the GI50 [42] was > 100 µM (inactive). The GI50 [43] was > 100 µM (inactive), the GI50 [44] was > 100 µM (inactive) and the GI50 [45] was > 100 µM (inactive). The GI50 [58] was > 100 µM (inactive), the GI50 [46] was > 100 µM (inactive) and the GI50 [48] was > 100 µM (inactive). The GI50 [49] was > 100 µM (inactive), the GI50 [50] was > 100 µM (inactive) and the GI50 [59] was > 100 µM (inactive). The GI50 [52] was 21.9 µM (inactive), the GI50 [53] was > 100 µM (inactive) and the GI50 [54] was > 100 µM (inactive). For the same compound, the GI50 [55] was > 100 µM (inactive) and the GI50 [56] was > 100 µM (inactive).
